Experimental data from patent US9115340B2, “Microfluidic continuous flow device” (AGENCY FOR SCIENCE TECHNOLOGY & RESEARCH, priority 2008, dated 2015).

What was measured:
[1] = system: primary rat hepatocytes; experiment: UGT activity: 4-MUG production of primary rat hepatocytes in the microfluidic channel (CE-LIF); assay type: cell-based; conditions: from day 3 onwards; TGF-β1 controlled released from gelatin microspheres at 217.5 pg/ml; compared to medium-supplemented and control groups
Method: The enzyme has the ability to metabolize the substrate 4-methylumbelliferone (MU) into 4-methylumbelliferone-glucuronide (MUG). Thus, the enzyme activity is indicated by the amount of 4-MUG produced by the cells.
Capillary electrophoresis (CE) with fluorimetric detection was used for the simultaneous detection of 4-MU and 4-MUG. Separation is carried out on an untreated fused silica capillary with fluorimetric detection using an excitation wavelength of 320 nm with a 375 nm cut off emission filter. […]
Similar to the UDP-glucuronosyltransferase (UGT) assay described above, UDP-glucuronosyltransferase (UGT) activity of hepatocytes cultured in the compartment of a channel of a microfluidic continuous flow device was determined by infusing 100 μM of 4-methylumbelliferone (4-MU) (Sigma, Singapore) for 4 h at 200 μl/h into the channel. The perfusate (800 μl) was collected and the metabolic product, 4-methylumbelliferone-glucuronide (4-MUG), was analyzed using capillary electrophoresis with laser induced fluorescence (CE-LIF) (Toh, Y. C. et al., 2008, Analyst, vol. 132, no. 3, p. 326) detection (Prince Technologies B.V., Netherlands) at an excitation wavelength of 325 nm.

[2] = system: primary rat hepatocytes; experiment: Albumin secretion of primary rat hepatocytes cultured in the microfluidic channel (rat albumin ELISA); assay type: cell-based
From the text: 200 pg/ml of TGF-β1 was supplemented into cultivation medium (▪). In another set of experiment, TGF-β1 was pre-loaded into gelatin microspheres and was then controlled released to the hepatocytes at a concentration of 217.5 pg/ml ( ?; control release). In the control experiment, there is no TGF-β1 supplemented in cultivation medium (□).
Albumin production was quantified with a rat albumin ELISA quantification kit (Bethyl Laboratories Inc, USA) in the collected cultivation medium everyday. In the presence of TGF-β1, the level of albumin secretion is enhanced. From day 5 onwards, when TGF-β1 is controlled released to the hepatocytes, the level of albumin secretion can be well-sustained.

TGF-β1: growth factor supplemented into cultivation medium or pre-loaded into gelatin microspheres and controlled released to hepatocytes
level of 4-MUG production [1]: greatly enhanced | albumin secretion ([2]; from day 5 onwards, 200 pg/ml TGF-β1 supplemented into cultivation medium): decreases | level of albumin secretion ([2]; from day 5 onwards, TGF-β1 controlled released from gelatin microspheres at 217.5 pg/ml): well-sustained | level of albumin secretion ([2]; in the presence of TGF-β1 (200 pg/ml in medium or 217.5 pg/ml controlled release) versus no TGF-β1): enhanced
